{"source": "patent US8324191B2", "about": "“Combined calcium, magnesium and vitamin D supplements” (Biolink Life Sciences, Inc, priority 2008, dated 2012)", "key": {"[1]": {"conditions": "conventional magnesium salts; Firoz and Graber 2001; cited from earlier work"}, "[2]": {"conditions": "250-750 mg magnesium daily as magnesium hydroxide, 2 years; cited from earlier work"}, "[3]": {"conditions": "cited from earlier work"}, "[4]": {"conditions": "doses of 1 g calcium citrate daily; cited from earlier work"}, "[5]": {"conditions": "1 gram calcium/day as the citrate, 1,471 healthy older women; cited from earlier work"}, "[6]": {"assay": "Availability of magnesium and lipoate ions from aqueous suspensions of the salt", "type": "physicochemical", "conditions": "aqueous solutions, pH about 4 to about 8", "excerpt": "Thus, its bioavailability is unexpectedly high, as compared to conventional, water-insoluble magnesium salts. Further, R-(+)-alpha-lipoic acid is a widely distributed physiological antioxidant that combines free radical scavenging properties with an ability, after intracellular reduction to dihydrolipoic acid, to regenerate the levels of other nonenzymatic and enzymatic antioxidants, including glutathione (GSH), ascorbate, α-tocopherol, catalase and GSH peroxidase. The physiological form of R-(+)-α-lipoate, the R-(+)-enantiomer, is present in all eukaryotic and prokaryotic cells."}, "[7]": {"conditions": "cited from earlier work", "remark": "listed apart in the source"}}, "note": "Like-named read-outs stand apart in the source and are kept apart here."}
{"compound": "[Cl-].[Cl-].[Mg+2]", "note": "[Magnesium chloride]", "values": [{"measurement": "Bioavailability (as fractional absorption of administered dose)", "setting": "[1]", "result": 12, "unit": "%"}]}
{"compound": "[Mg+2].[OH-].[OH-]", "note": "[Magnesium hydroxide]", "values": [{"measurement": "bone density", "setting": "[2]", "result": "significant increase in bone density"}, {"measurement": "fractures", "setting": "[2]", "result": "prevented fractures"}, {"measurement": "Bioavailability (as fractional absorption of administered dose)", "setting": "[1]", "result": 4, "unit": "%"}]}
{"compound": "CC(O)C(=O)[O-].CC(O)C(=O)[O-].[Mg+2]", "note": "(stereo not drawn) [Magnesium lactate]", "values": [{"measurement": "Bioavailability (as fractional absorption of administered dose)", "setting": "[1]", "result": 12, "unit": "%"}]}
{"compound": "[O]=[Mg]", "note": "[Magnesium oxide]", "values": [{"measurement": "Bioavailability (as fractional absorption of administered dose)", "setting": "[1]", "result": 4, "unit": "%"}]}
{"compound": "O=C(O)CCCCC1CCSS1", "note": "(stereo not drawn) [R-(+)-alpha-lipoic acid]", "values": [{"measurement": "storage life", "setting": "[3]; closed and sealed amber container at refrigerated temperatures", "result": "within a few months"}]}
{"compound": "O=C(O)CCCCC1CCSS1", "note": "(stereo not drawn) [RS-Alpha-lipoic acid, RS-alpha-lipoic acid]", "values": [{"measurement": "storage life", "setting": "[3]; closed and sealed amber container at room temperature", "result": "a year or more"}]}
{"compound": "O=C([O-])CC(O)(CC(=O)[O-])C(=O)[O-].O=C([O-])CC(O)(CC(=O)[O-])C(=O)[O-].[Ca+2].[Ca+2].[Ca+2]", "note": "[calcium citrate]", "values": [{"measurement": "risk for myocardial infarction, stroke and death", "setting": "[4]", "result": "increase risk"}]}
{"compound": "[Ca]", "note": "[calcium]", "values": [{"measurement": "effect on bone density", "setting": "[5]", "result": "beneficial effect on bone density"}]}
{"compound": "Magnesium R-(+)-alpha-lipoate", "values": [{"measurement": "availability of magnesium and R-(+)-alpha-lipoate ions from suspensions", "setting": "[6]", "result": "available"}]}
{"compound": "Magnesium citrate", "values": [{"measurement": "Bioavailability (as fractional absorption of administered dose)", "setting": "[1]", "result": 12, "unit": "%"}]}
{"compound": "vitamin D", "values": [{"measurement": "fracture benefit", "setting": "[7]; 400 IU per day", "result": "failed to demonstrate any fracture benefit"}, {"measurement": "reduction of risk of any non-vertebral fracture", "setting": "[7]; 700 to 800 IU per day", "result": 23, "unit": "%"}, {"measurement": "reduction of risk of hip fracture", "setting": "[7]; 700 to 800 IU per day", "result": 26, "unit": "%"}]}
